The values below come from article PMC7544691, “Discovery of a novel EGFR ligand DPBA that degrades EGFR and suppresses EGFR-positive NSCLC growth” (Signal Transduction and Targeted Therapy, 2020).

For orientation: Kd means the constant that tells how readily two partners part at equilibrium.

The structures appear in SMILES notation.

The assay addresses T1, Epidermal growth factor receptor (EGFR) (Homo sapiens, UniProt P00533).
T1 construct: extracellular domain (ECD), recombinant human
Nature of the assay: MST with recombinant EGFR ECD (also BIAcore SPR, Kd […]; CETSA in A549 and H1975). Format: binding. On the technique in general: Surface plasmon resonance follows binding to a sensor surface in real time, without labels.

T1 sequence (P00533 25-645 limits assumed): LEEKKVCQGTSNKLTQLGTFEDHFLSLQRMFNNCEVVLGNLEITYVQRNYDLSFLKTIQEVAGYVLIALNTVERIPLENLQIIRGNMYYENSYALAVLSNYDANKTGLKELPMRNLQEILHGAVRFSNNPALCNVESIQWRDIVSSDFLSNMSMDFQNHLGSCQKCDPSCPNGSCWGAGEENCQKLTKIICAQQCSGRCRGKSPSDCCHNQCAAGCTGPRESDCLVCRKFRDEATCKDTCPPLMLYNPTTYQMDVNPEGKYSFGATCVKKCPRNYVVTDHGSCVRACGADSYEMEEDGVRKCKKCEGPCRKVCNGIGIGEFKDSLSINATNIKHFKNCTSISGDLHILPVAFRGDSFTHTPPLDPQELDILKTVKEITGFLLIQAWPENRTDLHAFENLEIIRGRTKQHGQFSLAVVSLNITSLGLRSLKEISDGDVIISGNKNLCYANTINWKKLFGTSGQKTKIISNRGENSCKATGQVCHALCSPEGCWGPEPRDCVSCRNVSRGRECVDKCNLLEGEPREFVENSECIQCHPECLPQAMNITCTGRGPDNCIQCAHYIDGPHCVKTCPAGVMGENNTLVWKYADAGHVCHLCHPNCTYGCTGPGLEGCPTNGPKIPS

With `C=C(C)[C@@H]1CC[C@]2(C(=O)N3CCC(N4CCCCC4)CC3)CC[C@]3(C)[C@H](CC[C@@H]4[C@@]5(C)CC[C@H](O)[C@@](C)(CO)[C@@H]5CC[C@]43C)[C@@H]12` [compound 187, DPBA], the dissociation constant Kd was 38.4 ± 1.75 µM.
